In brackets after ≈: the same amount, converted by molar mass. Starred links: 1 amine or outer side, 2 acyl side, 3 side chain; linkers in the order of their positions; H or OH if unused. Positions of bridges follow the written chain, without caps; N, C: chain ends. Non-standard residues stand in square brackets, D forms with d. Residues, ends and D or L forms follow the SMILES beside them. Chains are numbered I, II in the order given. Actinocin(9to1) = Cc1c2oc3c(C)ccc(C(=O)[*:1])c3nc-2c(C(=O)[*:2])c(N)c1=O; NMeV = CN[C@H](C(=O)O)C(C)C; Sar = CNCC(=O)O
Experiments:
ESX transcript = assay: Northern blot of ESX transcript levels in SKBR3 cells; format: cell-based, human; conditions: 5 hours Act D
Description: The conserved and singular DNase I hypersensitivity sites found in the proximal ErbB2 and ESX promoters (12,15) were assayed as before (12). Briefly, following culture treatment of cells, nuclei isolated by mild detergent lysis in a buffer containing 10 mM Hepes pH 7.9, 1.5 mM MgCl2, 10 mM KCl, 0.4% NP-40, 10% glycerol and 1 mM DTT. Partial DNase I digestions were carried out by varying DNase I treatment times (0-15 minutes at 37( ) at a fixed DNase I concentrations (0.5-1.0 units per 10^6 nuclei). After purifying and restricting the DNA, it was electrophoresed through 0.7% agarose gels and blotted onto nylon membranes, UV-crosslinked and hybridized with randomly ^32P-labelled ErbB2 and ESX promoter probes, as similarly performed for routine Southern blotting. For Northern blotting, total (treated vs. control) cell RNA (10 μg/sample lane) was isolated using TRIzol (Invitrogen) according to manufacturer's specifications, electrophoresed into 1% agarose-formaldehyde gels and transferred onto membranes that were then hybridized with ^32P-labelled ErbB2 and ESX cDNA probes. For transcriptional run-off assays cell nuclei were first isolated from treated and control cells as described for the DNase I studies. […]

ErbB2 transcript = assay: Northern blot of ErbB2 transcript levels in ErbB2 overexpressing breast cancer cells; format: cell-based, human
Description: The conserved and singular DNase I hypersensitivity sites found in the proximal ErbB2 and ESX promoters (12,15) were assayed as before (12). Briefly, following culture treatment of cells, nuclei isolated by mild detergent lysis in a buffer containing 10 mM Hepes pH 7.9, 1.5 mM MgCl2, 10 mM KCl, 0.4% NP-40, 10% glycerol and 1 mM DTT. Partial DNase I digestions were carried out by varying DNase I treatment times (0-15 minutes at 37( ) at a fixed DNase I concentrations (0.5-1.0 units per 10^6 nuclei). After purifying and restricting the DNA, it was electrophoresed through 0.7% agarose gels and blotted onto nylon membranes, UV-crosslinked and hybridized with randomly ^32P-labelled ErbB2 and ESX promoter probes, as similarly performed for routine Southern blotting. For Northern blotting, total (treated vs. control) cell RNA (10 μg/sample lane) was isolated using TRIzol (Invitrogen) according to manufacturer's specifications, electrophoresed into 1% agarose-formaldehyde gels and transferred onto membranes that were then hybridized with ^32P-labelled ErbB2 and ESX cDNA probes. For transcriptional run-off assays cell nuclei were first isolated from treated and control cells as described for the DNase I studies. Elongatation of initiated nascent RNA chains was performed at 37 (C for 30 minutes using ˜5×10^6 nuclei per reaction in a buffer containing 10 mM Tris pH7.5, 2.5 mM MgCl2, 150 mM KCl, 1 mM DTT, 10% glycerol, 0.5 mM ATP, GTP and CTP, and 100 μCi of [α-^32P]UTP (800 Ci/mmol). Nuclear RNA was purified by the addition of 100 units of RNase-free DNase I (Roche) per reaction for 2 minutes followed by TRIzol processing. Radiolabelled RNA was hybridized (˜4×10^6 cpm) at 68 (C in ExpressHyb (Clontech) for 24 hours to nylon filter membranes previously slotted with 0.5 μg per slot of unlabelled ErbB2 cDNA fragments (from either the transmembrane or C-terminal domains), ESX cDNA fragments, and empty plasmid control, as we have previously described (16). Filters were washed at 64 (C in 0.2 SSC and 0.5% SDS. For Western blotting, whole-cell extracts from control vs. treated cells were boiled in sample loading buffer (1% SDS, 20% glycerol, 100 mM DTT, 50 mM Tris, pH 6.8), gel lanes loaded for constant total protein (15 μg), electrophoresed into 9% sodium dodecyl sulfacte polyacrylamide (SDS-PAGE) gels, transferred onto membranes (Immobilon-P, Millipore), and the protein-bound membranes hybridized with a primary antibody followed by a horseradish peroxidase-conjugated secondary antibody (Sigma), and specific protein bands visualized by chemiluminescent substrate (Pierce), as previously described (10).

ErbB2 promoter = assay: Genomically integrated ErbB2 promoter-luciferase reporter screen in MCF/R06pGL-9 cells; format: cell-based, human; conditions: 24 h treatment
Description: (§1) Reporter activity was assayed as follows: From T-150 or T-75 culture flasks, about […] cells/well were plated into a 96 well plate format for high-throughput screening. 24 hours post plating a test agent e.g. a drug from a combinatorial library, was added to the wells at various concentrations. Certain wells were used as controls (e.g. PBS or DMSO vehicle only). Replicate wells ([…] per drug concentration) were run. 24 hours after addition of the test agent the cells were lysed, a luciferase reagent was added and activity in each well was read using a high-throughput screening plate reader (labsystems Fluoroskan). Parallel plates were run for cell viability using an MTT assay (Sigma).
A luciferase reporter plasmid (designated RO6pGL-luc) was constructed by inserting the ˜500 bp SmaI-SmaI fragment of the human ErbB2 proximal promoter (12) into the pGL3Basic plasmid driving a luciferase reporter gene, as has been described (10). R06pGL-luc and a plasmid expressing neomycin phosphotransferase were co-transfected into the MCF-7 cells (ATCC) using Effectene (Qiagen). Cells were selected for stable expression of luciferase and neomycin (G418)-resistance. […] The reaction was quantified by absorbance at 570 nm measured with a microplate reader (Molecular Devices) and the mean (±SD) optical density recorded after normalization by the vehicle treated controls. […]

RO6 HER2 promoter [1] = assay: Basal promoter activity of MCF-7b stable RO6 populations; format: cell-based, human; conditions: 10 nM, 24 hours, serum-free media, clone and polyclonal populations
Description: (§2) Parental cell lines MCF-7, and MDA-453 were transfected with the construct Ro6pGL (FIG. 2) in conjunction with pcMneo construct using lipid-based transfection (Effectene) at a ratio of 20:1 reporter:selectable marker (see, FIG. 4). Monoclonal and polyclonal populations were selected in 0.5 mg/ml G418 over 2 to 4 weeks.
as §1

RO6 HER2 promoter [2] = assay: Basal promoter activity of MDA-453 stable RO6 polyclonal populations; format: cell-based, human; conditions: 10 nM TPA in DMSO, 8 and 48 hr, presence of serum, compared with DMSO only
Description: as §2
as §1, with “24 hours after addition of the test agent the cells were lysed, a luciferase reagent was added and activity in each well was read using a high-throughput screening plate reader (labsystems Fluoroskan).” left out

[3] = system: NCI panel of 60 human cancer cell lines; conditions: free drug, cell lines not overexpressing ErbB2; cited from earlier work
BT-474 cells = assay: In vitro antitumor activity against ErbB2-amplified BT-474 cells; format: cell-based
Description: FIG. 9 illustrates validation of NSC-176328 antitumor selectivity. ErbB2-positive human cancer cells are 8.5-fold more sensitive to NSC-176328 than a panel of ErbB2-negative cancer cells. In vitro antitumor activity against ErbB2-amplified BT-474 cells of free and liposome- or immunoliposome-encapsulated Ellipticine (NSC-176328). 6-3-aminopropylellipticine (AE; NSC 176328) was administered to cell cultures as free drug or after being encapsulated into liposomes (L-AE) or immunoliposomes (ILS-AE); the former prevent escape and cell exposure to free AE, the latter specifically internalize into and release AE within ErbB2 overexpressing tumor cells.

## Cc1c2oc3c(C)ccc(C(=O)N[C@@H]4C(=O)N[C@H](C(C)C)C(=O)N5CCC[C@H]5C(=O)N(C)CC(=O)N(C)[C@@H](C(C)C)C(=O)O[C@@H]4C)c3nc-2c(C(=O)N[C@@H]2C(=O)N[C@H](C(C)C)C(=O)N3CCC[C@H]3C(=O)N(C)CC(=O)N(C)[C@@H](C(C)C)C(=O)O[C@@H]2C)c(N)c1=O [Act D, actinomycin D] (I: T[dV]P[Sar][NMeV] / II: T[dV]P[Sar][NMeV]; ester I:1-I:C, II:1-II:C; linker I:N-II:N via Actinocin(9to1))
ESX transcript
  ESX mRNA level: complete loss of the short-lived ESX mRNA
ErbB2 transcript; SKBR3 cells, 5 hours treatment, TSA 0.05 or 0.40 μM, Act D 10 μg/ml
  ErbB2 mRNA level / decay: only a slight reduction in ErbB2 mRNA level

## CCCC(=O)[O-].[Na+] [sodium butyrate]
ErbB2 promoter
  ErbB2 promoter-reporter (luciferase) activity: significantly represses
ErbB2 transcript; 3 mM × 24 hours (data not shown)
  ErbB2 transcript levels: Virtually complete elimination of ErbB2 transcript levels

## C[C@@H]1C[C@@H]([C@H](O)CC2CC(=O)NC(=O)C2)C(=O)[C@@H](C)C1 [cycloheximide]
ErbB2 transcript; BT-474 or MDA-453 cells (data not shown)
  effect on TSA induced ErbB2 transcript decay: no ability to arrest TSA induced ErbB2 transcript decay
ErbB2 transcript; SKBR3 cells, 50 μg/ml
  ErbB2 transcript levels in control cells: no effect on ErbB2 transcript levels in control cells
  effect on TSA induced accelerated ErbB2 mRNA degradation: completely inhibited the accelerated ErbB2 mRNA degradation induced by TSA

## CCCCCCCCCCCCCC(=O)O[C@@H]1[C@@H](C)[C@@]2(O)[C@@H](C=C(CO)C[C@]3(O)C(=O)C(C)=C[C@@H]23)[C@@H]2C(C)(C)[C@]12OC(C)=O [TPA]
RO6 HER2 promoter [1]
  basal promoter activity: decreased basal promoter activity
RO6 HER2 promoter [2]
  basal promoter activity: no significant effect on basal promoter activity

## Cc1c2cnccc2c(C)c2c1c1ccccc1n2CCCN [AE, 6-3-aminopropylellipticine]
[3]
  average LC50: 1700 µg/mL
BT-474 cells; BT-474 vs NCI panel of ErbB2-negative cancer cells
  sensitivity of ErbB2-positive vs ErbB2-negative cancer cells: 8.5 fold
BT-474 cells; free drug, ErbB2 overexpressing BT-474 cells
  LC50: 200 µg/mL (≈ 659 µM)

— patent US20120264159A1, “SCREENING SYSTEM FOR MODULATORS OF HER2 MEDIATED TRANSCRIPTION AND HER2 MODULATORS IDENTIFED THEREBY” (BUCK INSTITUTE FOR AGE RESEARCH, priority 2001, published 2012)
